According to ChEMBL document CHEMBL3046455, “Synthesis and pharmacological evaluation of some novel 4-isopropyl thiazole-based sulfonyl derivatives as potent antimicrobial and antitubercular agents” (Med Chem Res, 2013):
In brackets after ≈: the same amount, converted by molar mass.

What was measured:
[1] = test system: Escherichia coli; experiment: Antibacterial activity against Escherichia coli ATCC 10536 after 24 hr by broth microdilution method; format: functional; conditions: ATCC 10536, 24 h
[2] = test system: Klebsiella pneumoniae; experiment: Antibacterial activity against Klebsiella pneumoniae ATCC 10031 after 24 hr by broth microdilution method; format: functional; conditions: ATCC 10031, 24 h
[3] = test system: Bacillus subtilis; experiment: Antibacterial activity against Bacillus subtilis ATCC 60511 after 24 hr by broth microdilution method; format: functional; conditions: ATCC 60511, 24 h
[4] = test system: Staphylococcus aureus; experiment: Antibacterial activity against Staphylococcus aureus ATCC 11632 after 24 hr by broth microdilution method; format: functional; conditions: ATCC 11632, 24 h
[5] = test system: Enterococcus faecalis; experiment: Antibacterial activity against Enterococcus faecalis ATCC 14506 after 24 hr by broth microdilution method; format: functional; conditions: ATCC 14506, 24 h
[6] = test system: Mycobacterium tuberculosis; experiment: Antitubercular activity against Mycobacterium tuberculosis H37Rv after 21 days by broth microdilution method; format: functional; conditions: 504 h
[7] = test system: Aspergillus niger; experiment: Antifungal activity against Aspergillus niger ATCC 6275 after 24 hr by broth microdilution method; format: functional; conditions: ATCC 6275, 24 h
[8] = test system: Candida tropicalis; experiment: Antifungal activity against Candida tropicalis ATCC 1369 after 24 hr by broth microdilution method; format: functional; conditions: ATCC 1369, 24 h
[9] = test system: Saccharomyces cerevisiae; experiment: Antifungal activity against Saccharomyces cerevisiae ATCC 9763 after 24 hr by broth microdilution method; format: functional; conditions: ATCC 9763, 24 h
[10] = test system: Pseudomonas aeruginosa; experiment: Antibacterial activity against Pseudomonas aeruginosa ATCC 10145 after 24 hr by broth microdilution method; format: functional; conditions: ATCC 10145, 24 h
[11] = test system: A549; experiment: Cytotoxicity against Homo sapiens (human) A549 cells at […] by MTT assay relative to control; format: cell-based

| Structure (SMILES) | MIC [1] [µg/mL] | MIC [2] [µg/mL] | MIC [3] [µg/mL] | MIC [4] [µg/mL] | MIC [5] [µg/mL] | MIC [6] [µg/mL] | MIC [7] [µg/mL] | MIC [8] [µg/mL] | MIC [9] [µg/mL] | MIC [10] [µg/mL] | Activity [11] |
| --- | --- | --- | --- | --- | --- | --- | --- | --- | --- | --- | --- |
| CC(C)c1csc(-c2nnc(S(=O)(=O)Cc3ccc(Br)cc3)n2/N=C/c2ccc(F)cc2)n1 | 8 (≈ 14.6 µM) | 8 (≈ 14.6 µM) | 8 (≈ 14.6 µM) | 62.5 (≈ 114 µM) | 62.5 (≈ 114 µM) | 8 (≈ 14.6 µM) | 125 (≈ 228 µM) | 31.2 (≈ 57 µM) | 31.2 (≈ 57 µM) | 62.5 (≈ 114 µM) |  |
| CC(C)c1csc(-c2nnc(S(=O)(=O)Cc3ccc(Br)cc3F)n2/N=C/c2ccc(Cl)cc2)n1 | 62.5 (≈ 107 µM) | 31.2 (≈ 53.6 µM) | 8 (≈ 13.7 µM) | 31.2 (≈ 53.6 µM) | 31.2 (≈ 53.6 µM) | 8 (≈ 13.7 µM) | 8 (≈ 13.7 µM) | 8 (≈ 13.7 µM) | 16 (≈ 27.4 µM) | 16 (≈ 27.4 µM) |  |
| CC(C)c1csc(-c2nnc(S(=O)(=O)Cc3ccc(C(F)(F)F)cc3)n2/N=C/c2ccc(Cl)cc2)n1 | 8 (≈ 14.4 µM) | 16 (≈ 28.9 µM) | 4 (≈ 7.22 µM) | 4 (≈ 7.22 µM) | 8 (≈ 14.4 µM) | 4 (≈ 7.22 µM) | 4 (≈ 7.22 µM) | 8 (≈ 14.4 µM) | 4 (≈ 7.22 µM) | 4 (≈ 7.22 µM) | 50% |
| CC(C)c1csc(-c2nnc(S(=O)(=O)Cc3ccc(Cl)cc3)n2/N=C/c2ccc(Cl)cc2)n1 | 62.5 (≈ 120 µM) | 31.2 (≈ 60 µM) | 31.2 (≈ 60 µM) | 8 (≈ 15.4 µM) | 8 (≈ 15.4 µM) | 8 (≈ 15.4 µM) | 8 (≈ 15.4 µM) | 8 (≈ 15.4 µM) | 16 (≈ 30.7 µM) | 8 (≈ 15.4 µM) |  |
| CC(C)c1csc(-c2nnc(S(=O)(=O)Cc3ccccc3)n2/N=C/c2c(F)cccc2F)n1 | 31.2 (≈ 64.1 µM) | 31.2 (≈ 64.1 µM) | 62.5 (≈ 128 µM) | 4 (≈ 8.2 µM) | 8 (≈ 16.4 µM) | 4 (≈ 8.2 µM) | 8 (≈ 16.4 µM) | 16 (≈ 32.8 µM) | 8 (≈ 16.4 µM) | 4 (≈ 8.2 µM) |  |
| CC(C)c1csc(-c2nnc(S(=O)(=O)Cc3ccc(Cl)cc3)o2)n1 | 4 (≈ 10.4 µM) | 8 (≈ 20.8 µM) | 8 (≈ 20.8 µM) | 16 (≈ 41.7 µM) | 31.2 (≈ 81.4 µM) | 4 (≈ 10.4 µM) | 16 (≈ 41.7 µM) | 8 (≈ 20.8 µM) | 8 (≈ 20.8 µM) | 8 (≈ 20.8 µM) |  |
| CC(C)c1csc(-c2nnc(S(=O)(=O)Cc3ccc(Br)cc3)o2)n1 | 4 (≈ 9.34 µM) | 8 (≈ 18.7 µM) | 31.2 (≈ 73 µM) | 8 (≈ 18.7 µM) | 31.2 (≈ 73 µM) | 4 (≈ 9.34 µM) | 31.2 (≈ 73 µM) | 31.2 (≈ 73 µM) | 62.5 (≈ 146 µM) | 8 (≈ 18.7 µM) |  |
| CC(C)c1csc(-c2nnc(S(=O)(=O)Cc3ccccc3C(F)(F)F)o2)n1 | 8 (≈ 19.2 µM) | 2 (≈ 4.79 µM) | 31.2 (≈ 74.9 µM) | 8 (≈ 19.2 µM) | 16 (≈ 38.3 µM) | 2 (≈ 4.79 µM) | 125 (≈ 299 µM) | 31.2 (≈ 74.9 µM) | 8 (≈ 19.2 µM) | 4 (≈ 9.58 µM) | 50% |
| CC(C)c1csc(-c2nnc(S(=O)(=O)Cc3ccccc3)o2)n1 | 8 (≈ 22.9 µM) | 8 (≈ 22.9 µM) | 31.2 (≈ 89.4 µM) | 62.5 (≈ 179 µM) | 16 (≈ 45.8 µM) | 4 (≈ 11.4 µM) | 16 (≈ 45.8 µM) | 8 (≈ 22.9 µM) | 4 (≈ 11.4 µM) | 8 (≈ 22.9 µM) |  |
| CC(C)c1csc(-c2nnc(S(=O)(=O)Cc3cc(Cl)ccc3F)o2)n1 | 8 (≈ 19.9 µM) | 4 (≈ 9.95 µM) | 8 (≈ 19.9 µM) | 8 (≈ 19.9 µM) | 31.2 (≈ 77.8 µM) | 4 (≈ 9.95 µM) | 8 (≈ 19.9 µM) | 8 (≈ 19.9 µM) | 16 (≈ 39.8 µM) | 4 (≈ 9.95 µM) |  |
| CC(C)c1csc(-c2nnc(S(=O)(=O)Cc3ccc(Br)cc3F)n2-c2ccccc2)n1 | 8 (≈ 15.3 µM) | 16 (≈ 30.7 µM) | 16 (≈ 30.7 µM) | 31.2 (≈ 59.9 µM) | 31.2 (≈ 59.9 µM) | 8 (≈ 15.3 µM) | 16 (≈ 30.7 µM) | 31.2 (≈ 59.9 µM) | 16 (≈ 30.7 µM) | 16 (≈ 30.7 µM) |  |
| CC(C)c1csc(-c2nnc(S(=O)(=O)Cc3ccc(C(F)(F)F)cc3)n2-c2ccccc2)n1 | 16 (≈ 32.5 µM) | 16 (≈ 32.5 µM) | 8 (≈ 16.2 µM) | 4 (≈ 8.12 µM) | 8 (≈ 16.2 µM) | 4 (≈ 8.12 µM) | 16 (≈ 32.5 µM) | 31.2 (≈ 63.4 µM) | 16 (≈ 32.5 µM) | 16 (≈ 32.5 µM) |  |
| CC(C)c1csc(-c2nnc(S(=O)(=O)Cc3ccc(Br)cc3)n2-c2ccccc2)n1 | 16 (≈ 31.8 µM) | 16 (≈ 31.8 µM) | 16 (≈ 31.8 µM) | 8 (≈ 15.9 µM) | 16 (≈ 31.8 µM) | 8 (≈ 15.9 µM) | 16 (≈ 31.8 µM) | 16 (≈ 31.8 µM) | 16 (≈ 31.8 µM) | 8 (≈ 15.9 µM) |  |
| CC(C)c1csc(-c2nnc(S(=O)(=O)Cc3cc(Cl)ccc3F)n2-c2ccccc2)n1 | 4 (≈ 8.39 µM) | 8 (≈ 16.8 µM) | 31.2 (≈ 65.5 µM) | 16 (≈ 33.5 µM) | 31.2 (≈ 65.5 µM) | 4 (≈ 8.39 µM) | 31.2 (≈ 65.5 µM) | 16 (≈ 33.5 µM) | 16 (≈ 33.5 µM) | 8 (≈ 16.8 µM) |  |
| CC(C)c1csc(-c2nnc(S(=O)(=O)Cc3ccc(OC(F)(F)F)cc3)n2-c2ccccc2)n1 | 2 (≈ 3.93 µM) | 4 (≈ 7.87 µM) | 8 (≈ 15.7 µM) | 31.2 (≈ 61.4 µM) | 8 (≈ 15.7 µM) | 1 (≈ 1.97 µM) | 31.2 (≈ 61.4 µM) | 16 (≈ 31.5 µM) | 16 (≈ 31.5 µM) | 8 (≈ 15.7 µM) | 50% |
| CC(C)c1csc(-c2nnc(S(=O)(=O)Cc3ccc(Br)cc3F)n2/N=C/c2c(F)cccc2F)n1 | 16 (≈ 27.4 µM) | 31.2 (≈ 53.5 µM) | 16 (≈ 27.4 µM) | 31.2 (≈ 53.5 µM) | 31.2 (≈ 53.5 µM) | 8 (≈ 13.7 µM) | 16 (≈ 27.4 µM) | 16 (≈ 27.4 µM) | 16 (≈ 27.4 µM) | 8 (≈ 13.7 µM) |  |
| CC(C)c1csc(-c2nnc(S(=O)(=O)Cc3ccc(C(F)(F)F)cc3)n2/N=C/c2c(F)cccc2F)n1 | 4 (≈ 7.2 µM) | 16 (≈ 28.8 µM) | 8 (≈ 14.4 µM) | 8 (≈ 14.4 µM) | 16 (≈ 28.8 µM) | 0.5 (≈ 0.9 µM) | 8 (≈ 14.4 µM) | 4 (≈ 7.2 µM) | 16 (≈ 28.8 µM) | 8 (≈ 14.4 µM) | 50% |
| CC(C)c1csc(-c2nnc(S(=O)(=O)Cc3ccc(Cl)cc3)n2/N=C/c2c(F)cccc2F)n1 | 8 (≈ 15.3 µM) | 31.2 (≈ 59.9 µM) | 8 (≈ 15.3 µM) | 31.2 (≈ 59.9 µM) | 31.2 (≈ 59.9 µM) | 8 (≈ 15.3 µM) | 31.2 (≈ 59.9 µM) | 16 (≈ 30.7 µM) | 62.5 (≈ 120 µM) | 62.5 (≈ 120 µM) |  |
| CC(C)c1csc(-c2nnc(S(=O)(=O)Cc3ccc(Br)cc3)n2/N=C/c2c(F)cccc2F)n1 | 8 (≈ 14.1 µM) | 8 (≈ 14.1 µM) | 16 (≈ 28.2 µM) | 31.2 (≈ 55.2 µM) | 16 (≈ 28.2 µM) | 8 (≈ 14.1 µM) | 8 (≈ 14.1 µM) | 8 (≈ 14.1 µM) | 62.5 (≈ 110 µM) | 8 (≈ 14.1 µM) |  |
| CC(C)c1csc(-c2nnc(S(=O)(=O)Cc3ccc(Br)cc3F)n2/N=C/c2ccc(F)cc2)n1 | 8 (≈ 14.1 µM) | 8 (≈ 14.1 µM) | 31.2 (≈ 55.2 µM) | 16 (≈ 28.2 µM) | 31.2 (≈ 55.2 µM) | 16 (≈ 28.2 µM) | 31.2 (≈ 55.2 µM) | 31.2 (≈ 55.2 µM) | 31.2 (≈ 55.2 µM) | 62.5 (≈ 110 µM) |  |
| CC(C)c1csc(-c2nnc(S(=O)(=O)Cc3ccc(C(F)(F)F)cc3)n2/N=C/c2ccc(F)cc2)n1 | 8 (≈ 14.9 µM) | 4 (≈ 7.44 µM) | 8 (≈ 14.9 µM) | 4 (≈ 7.44 µM) | 8 (≈ 14.9 µM) | 2 (≈ 3.72 µM) | 4 (≈ 7.44 µM) | 16 (≈ 29.8 µM) | 4 (≈ 7.44 µM) | 8 (≈ 14.9 µM) | Toxic |
| CC(C)c1csc(-c2nnc(S(=O)(=O)Cc3ccc(Cl)cc3)n2/N=C/c2ccc(F)cc2)n1 | 16 (≈ 31.7 µM) | 31.2 (≈ 62 µM) | 4 (≈ 7.94 µM) | 8 (≈ 15.9 µM) | 4 (≈ 7.94 µM) | 8 (≈ 15.9 µM) | 31.2 (≈ 62 µM) | 31.2 (≈ 62 µM) | 31.2 (≈ 62 µM) | 16 (≈ 31.7 µM) |  |
| O=C(O)c1cn(C2CC2)c2cc(N3CCNCC3)c(F)cc2c1=O [CIPROFLOXACIN] | ≤ 1 | ≤ 1 | ≤ 1 | ≤ 5 | ≤ 5 |  |  |  |  | ≤ 5 |  |
| OC(Cn1cncn1)(Cn1cncn1)c1ccc(F)cc1F [FLUCONAZOLE] |  |  |  |  |  |  | ≤ 1 | ≤ 1 | ≤ 1 |  |  |
| NNC(=O)c1ccncc1 [ISONIAZID] |  |  |  |  |  | 0.25 (≈ 1.82 µM) |  |  |  |  |  |
| CCn1cc(C(=O)O)c(=O)c2cc(F)c(N3CCNCC3)cc21 [NORFLOXACIN] | ≤ 1 | ≤ 1 | ≤ 1 | ≤ 5 | ≤ 5 |  |  |  |  | ≤ 5 |  |
